Measured values reported in PubChem BioAssay (NCI).
“And” between values parts separate entries of the source, which are not always exact repeats. Equal entries are not always repeated.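 A five-concentration, 48-hour dose response in 96-well plates underlies each endpoint, interpolated linearly between surrounding concentrations. GI50 = concentration required for 50% inhibition of growth. TGI is the concentration that stops growth completely.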

What was measured:
Assay in all cases: inhibition of tumour cell growth, NCI panel, 48 h
[1] = tested on: UACC-62 melanoma
[2] = tested on: LOX IMVI melanoma
[3] = tested on: A498 renal
[4] = tested on: CCRF-CEM leukemia
[5] = tested on: SF-268 CNS
[6] = tested on: BT-549 breast
[7] = tested on: NCI-H460 lung
[8] = tested on: SF-295 CNS
[9] = tested on: MDA-MB-435
[10] = tested on: RPMI-8226 leukemia

| Structure (SMILES) | GI50 [1] | TGI [1] | GI50 [2] | TGI [2] | GI50 [3] | TGI [3] | GI50 [4] | TGI [4] | GI50 [5] | TGI [5] | GI50 [6] | TGI [6] | GI50 [7] | TGI [7] | GI50 [8] | TGI [8] | GI50 [9] | TGI [9] | GI50 [10] | TGI [10] |
| --- | --- | --- | --- | --- | --- | --- | --- | --- | --- | --- | --- | --- | --- | --- | --- | --- | --- | --- | --- | --- |
| CCCSC1=NC2C(N(CC)C(=O)N2CC)N1/N=C/C=C/c1ccccc1[N+](=O)[O-] (stereo not given) | 2.81 µM | > 100 µM | 3.08 µM | 20.7 µM | 1.59 µM | 6.35 µM | 2.93 µM | > 100 µM | 4.69 µM | > 100 µM | 2.6 µM | 8.5 µM | 3.45 µM | > 100 µM | 2.74 µM | > 100 µM | 2.02 µM | 7.24 µM |  |  |
| COc1ccc(-c2c(-c3cc(OC)c4c(c3)OCO4)noc2N)cc1 | 0.05 µM | 20.7 µM | 0.0629 µM | > 51.5 µM | 0.0268 µM | 0.342 µM | 0.0361 µM | 24.9 µM | 0.11 µM | > 91 µM | 0.568 µM | 38.7 µM | 0.0339 µM | 10.9 µM | 0.0197 µM | 23.8 µM |  | 0.0251 µM | 0.0511 µM | 16.9 µM |
| CCOC(=O)Nc1ccc(-c2nc(-c3cccc(OC)c3)c(-c3ccnc(Br)c3)[nH]2)cc1 | 1.89 µM | 4.18 µM | 1.56 µM | 3.32 µM | 1.94 µM | 7.06 µM | 2.75 µM | > 100 µM | 3.26 µM | > 100 µM | 2.19 µM | 8.11 µM | 2.79 µM | 8.41 µM | 0.416 µM | 2.93 µM | 2.73 µM | 9.54 µM | 0.794 µM | 3.49 µM |
| CS(=O)(=O)CCNCc1ccc(-c2ccc3ncnc(Nc4ccc(OCc5ccccc5)c(Cl)c4)c3c2)o1 | 4.11 µM | 8.15 µM | 4.11 µM | 8.2 µM | 1.56 µM | 9.33 µM | 7.24 µM | > 21.5 µM | 6.52 µM | > 25 µM | 6.9 µM | > 25 µM | 6.07 µM | > 17.8 µM | 4.94 µM | 12.1 µM | 4.47 µM | 9.78 µM | 5.49 µM | 13.7 µM |
| COC1=Nc2ccccc2S(=O)(=O)C=C1 |  | 37.4 µM |  | 10.9 µM |  | 33 µM | 2.85 µM | > 100 µM |  | 48.6 µM | 0.678 µM | 19.1 µM |  | 37.3 µM |  | > 88.1 µM |  | 24.8 µM |  | 4.81 µM |
| N#Cc1ccc(C(c2ccc(C#N)cc2)n2cncn2)cc1 | 51.5 µM |  | > 5000 µM | > 5000 µM |  | > 5000 µM | > 5000 µM | > 5000 µM | > 5000 µM | > 5000 µM |  | > 5000 µM | > 5000 µM | > 5000 µM | 182 µM | > 5000 µM | > 5000 µM | > 5000 µM | > 5000 µM | > 5000 µM |
| CC(=O)[O][Hg][c]1ccccc1 | 0.587 µM | 1.91 µM | 0.227 µM | 0.696 µM | 1.11 µM | 2.37 µM | 0.147 µM | 0.494 µM | 1.14 µM | 2.64 µM | 0.453 µM | 1.66 µM | 0.934 µM | 3.82 µM | 1.61 µM | 3.57 µM | 0.808 µM | 2.19 µM | 0.283 µM | 1.3 µM |
| O=C(Oc1ccccc1Cl)c1ccccc1Nc1ccnc(C(F)(F)F)c1 | 0.165 µM | 2.05 µM | 0.0261 µM | 0.0864 µM | 3.92 µM | 17.6 µM | 0.0324 µM |  | 0.71 µM |  | 0.635 µM | 20.6 µM | 0.422 µM | > 26.2 µM | 0.27 µM | 1.09 µM | 0.107 µM | 0.297 µM | 0.106 µM | 0.385 µM |
| Nc1c(C(=O)Nc2ccccc2F)sc2nc3c(cc12)C(=O)CCC3 | 0.654 µM | > 100 µM | 8.58 µM | > 100 µM | 0.47 µM | > 24 µM | 3.46 µM | > 100 µM | > 30.6 µM | > 100 µM |  | > 52.5 µM | 0.541 µM | > 63.1 µM | 0.611 µM | > 92.6 µM | 0.216 µM | 0.661 µM |  |  |
| Cc1c(NC(=O)OC[C@@H]2COCCN2)cn2ncnc(Nc3ccc4c(cnn4Cc4cccc(F)c4)c3)c12 | > 10 µM and 4.82 µM | > 10 µM and 18.7 µM | 5.8 µM and 5.39 µM | > 10 µM and 19.4 µM | 0.532 µM and 1.02 µM | > 10 µM and 15.5 µM | > 10 µM and 11 µM | > 10 µM and 34.3 µM | > 10 µM and 7.18 µM | > 10 µM and 24.5 µM | > 10 µM and 8.52 µM | > 10 µM and 22.7 µM | > 10 µM and 6.57 µM | > 10 µM and 24 µM | 9.08 µM and 5.67 µM | > 10 µM and 20.6 µM | > 10 µM and 9.97 µM | > 10 µM and 23 µM | 5.35 µM and 6.35 µM | > 10 µM and 28.2 µM |
| O=C1C(Cl)=C(Nc2cccc(O)c2)C(=O)N1c1ccccc1Cl | 19.6 µM | 62.3 µM | 20.1 µM | 52.6 µM |  |  | 1.48 µM | 19.6 µM | 13.6 µM | 60.6 µM | 21.8 µM | 75.4 µM | 41.2 µM | > 100 µM | 40 µM | > 100 µM | 37.2 µM | > 100 µM | 10.4 µM | 35.1 µM |
| CN(CCCl)c1ccc(/C=C/C2=[N+](C)c3ccccc3C2(C)C)cc1 | 0.482 µM | 7.68 µM |  |  | 1.34 µM | 12.6 µM | 0.151 µM | 5.75 µM | 0.691 µM | 13.5 µM | 0.424 µM | 4.85 µM | 0.679 µM | 10.6 µM | 0.728 µM | 5.14 µM | 0.415 µM | 2.46 µM | 0.331 µM | 2.46 µM |
| CC/C(C)=C1\OC(=O)C(C)C(O)C(Cc2cccnc2)NC(=O)C(NC(=O)c2ncccc2O)C(C)OC1=O (stereo not given) |  | > 100 µM |  | > 100 µM |  | > 100 µM |  |  |  | > 100 µM |  | > 100 µM |  | > 100 µM |  | > 100 µM |  | > 100 µM |  | > 100 µM |
| CCCCCC/C=C\CCCCCCCCCC1=CC(=O)C=C(OC)C1=O |  | 16.9 µM |  | 13.9 µM |  | 13.5 µM |  |  |  | 19.3 µM |  | 13.1 µM |  | 11.1 µM |  | 13.2 µM |  | 13.8 µM |  | 7.83 µM |
